For this test, the target named is T1, sucrase (Saccharomyces cerevisiae, UniProt P00724).
T1 construct: S. cervisiae (Taiken 396 strain) which is a general yeast having sucrase; endogenous in cells; host or cells: Saccharomyces cerevisiae Taiken 396 strain (live yeast in sugarcane-pressed juice)
T1 sequence (P00724 20-532): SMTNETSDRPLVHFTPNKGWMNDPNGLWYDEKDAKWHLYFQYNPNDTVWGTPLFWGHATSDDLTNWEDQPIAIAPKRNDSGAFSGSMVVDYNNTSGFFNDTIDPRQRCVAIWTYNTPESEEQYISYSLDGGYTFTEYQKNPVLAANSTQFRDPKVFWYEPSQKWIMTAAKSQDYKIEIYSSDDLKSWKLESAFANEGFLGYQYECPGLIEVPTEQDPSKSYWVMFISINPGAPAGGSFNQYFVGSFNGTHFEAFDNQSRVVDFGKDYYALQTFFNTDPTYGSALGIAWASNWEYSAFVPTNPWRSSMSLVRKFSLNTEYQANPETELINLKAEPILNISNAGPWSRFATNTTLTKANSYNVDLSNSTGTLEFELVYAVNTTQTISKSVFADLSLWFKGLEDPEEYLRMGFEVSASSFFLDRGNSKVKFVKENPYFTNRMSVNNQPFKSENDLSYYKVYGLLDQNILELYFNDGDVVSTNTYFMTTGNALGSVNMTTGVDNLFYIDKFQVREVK
Nature of the test: Fermentation test on sugarcane-pressed juice using sucrase inhibitor. Type of test: cell-based, S. cervisiae (Taiken 396 strain). The conditions noted are these: 60 mM inhibitor. The protocol: S. cervisiae ([…] 396 strain) which is a general yeast having sucrase was planted in a sugarcane-pressed juice. Methyl-α-D-glucopyranoside serving as a sucrase inhibitor was added thereto at a concentration 60 mM. A fermentation test was conducted to examine the changes in the concentrations of sucrose, invert sugars, and ethanol over time. The fungal strain used for fermentation had been pre-precultured by shaking in 10 mL of a YM medium at 30° C. for 24 hours, and then further precultured by shaking in 500 mL of a YPD medium at 30° C. for 12 hours. The yeast was collected from the precultured medium by centrifugation. 100 mL of the pressed juice (in the pressed juice, the sucrose concentration was 10.0%, and the invert sugar concentration was 3.0%) and 60 mM of methyl-α-D-glucopyranoside were placed in a 300-mL Erlenmeyer flask with a fermentation lock. The yeast collected from the precultured medium by centrifugation was added into the flask for fermentation. The fermentation was carried out by shaking at 30° C. at 120 rpm.

Where [1] appears, read: 6 hours after the fermentation was started.

Take `CO[C@H]1O[C@H](CO)[C@@H](O)[C@H](O)[C@H]1O` [methyl-α-D-glucopyranoside]: under setting [1], the “invert sugars converted into ethanol” value is “all the invert sugars were converted into ethanol” and the sucrose remaining result was “approximately half of the sucrose remained”. Also, where the note is “8 hours after the fermentation was started”, the “sucrose ratio of the fermented liquid” value came to 94.0%. In addition, the sucrose decomposition speed result (sugarcane-pressed juice (sucrose 10.0%, invert sugar 3.0%), 30° C., compared with no inhibitor) was “made slow”.

(Values after patent US8647845B2, “Method for producing sugar” (Asahi Group Holdings, Ltd., priority 2008, dated 2014).)
